In ChEMBL document CHEMBL1201862, “PubChem BioAssay data set” (2004):
The source made the active and inactive calls.

Experiments:
[1] = biological target: T1, Luciferin 4-monooxygenase (Photinus pyralis, UniProt P08659); assay: Counter Screen for Luciferase-based Assay Positives. [Related pubchem assays: 620, 618, 411 ]
[2] = biological target: Glyceraldehyde-3-phosphate dehydrogenase (Homo sapiens, UniProt P04406)
HT-1080 = assay: cytotoxicity in HT1080 fibrosarcoma cells, cell-based, fluorescence readout (AID 620); type: functional; conditions: Homo sapiens
[3] = cytotoxicity in HEK-293T cells, dose response, cytotoxicity control for BCR NF-kB inhibitor project, luminescence, B-cell screen hits (AID 489021); type: functional, cell-based;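 note: HEK-293T cells carrying an NF-kB luciferase reporter; cells exposed to compound for about 14 hours before viability readout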
[4] = biological target: T2, Heat shock factor protein 1 (Mus musculus, UniProt P38532); assay: inhibition of MG132-induced HSE-luciferase signal, confirmation, cell-based, NIH3T3, luminescence, dose retest (AID 2382); type: functional;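 note: NIH3T3 fibroblasts with HSF1-driven luciferase reporter stressed by proteasome inhibitor MG132; luminescence from HSF1-driven luciferase expression after 8 hours of MG132 stress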
T2 sequence (P38532 whole entry): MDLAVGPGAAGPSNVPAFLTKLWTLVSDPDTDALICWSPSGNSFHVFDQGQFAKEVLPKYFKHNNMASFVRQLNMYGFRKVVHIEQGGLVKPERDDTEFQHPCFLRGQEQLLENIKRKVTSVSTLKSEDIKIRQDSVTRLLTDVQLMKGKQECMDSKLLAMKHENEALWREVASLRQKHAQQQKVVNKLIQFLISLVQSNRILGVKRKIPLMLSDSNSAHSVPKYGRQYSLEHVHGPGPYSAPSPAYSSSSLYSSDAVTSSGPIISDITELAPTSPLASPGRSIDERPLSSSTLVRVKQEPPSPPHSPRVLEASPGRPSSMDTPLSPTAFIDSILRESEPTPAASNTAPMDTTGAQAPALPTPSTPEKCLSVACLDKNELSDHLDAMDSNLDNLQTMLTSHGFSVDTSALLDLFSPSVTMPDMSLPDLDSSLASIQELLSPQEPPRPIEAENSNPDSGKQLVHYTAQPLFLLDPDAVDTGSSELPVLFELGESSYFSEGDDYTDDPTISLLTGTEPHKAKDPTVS

[5] = biological target: DNA dC->dU-editing enzyme APOBEC-3A (Homo sapiens, UniProt P31941); assay: APOBEC3A DNA deaminase inhibitors, dose response, biochemical (AID 504722); type: functional
[6] = biological target: DNA dC->dU-editing enzyme APOBEC-3G (Homo sapiens, UniProt Q9HC16); assay: Dose Response confirmation of small molecule APOBEC3G DNA Deaminase Inhibitors via a fluorescence-based single-stranded DNA deaminase assay. [Related pubchem assays (depositor defined):AID493012, AID493028]; type: functional
[7] = inhibitors of firefly luciferase expression or activity, dose response, H4 neuroglioma cells, luminescence (AID 1990); type: functional, cell-based
[8] = Luminescence Cell-Based Dose Response HTS to Identify Inhibitors of 5'UTR Stem-Loop Driven Prion Protein mRNA Translation in H4 Neuroglioblastoma Cells. [Related pubchem assays: 1827 (Project Summary), 1813 (Primary HTS)]; type: functional
[9] = inhibitors of SNCA 5'UTR-driven reporter translation, confirmation, H4 neuroglioma cells, luminescence (AID 1988); type: functional, cell-based
[10] = off-target signal loss in HeLa-CEM21 co-culture – HeLa F-luc CTL cells, cherry-picked, counter-screen for HIV-1 Env fusion inhibitor project, dose response (AID 652040); type: functional, cell-based;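 note: potency for signal decrease marking cytotoxic or nonspecific inhibition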
[11] = biological target: T1, Luciferin 4-monooxygenase; assay: firefly luciferase enzyme inhibitors, dose response, biochemical, luminescence (AID 1891)
[12] = biological target: Glucose-6-phosphate 1-dehydrogenase (Homo sapiens, UniProt P11413); assay: human G6PD enzyme inhibitors, dose response, selectivity assay for P. falciparum G6PD inhibitor project, biochemical, fluorescence (AID 504792); type: functional
[13] = biological target: T3, Short transient receptor potential channel 4 (Mus musculus, UniProt Q9QUQ5); assay: mouse TRPC4 channel inhibitors, dose response, cell-based, HEK293 TRPC4/mu-opioid, Fluo-4 calcium (AID 434942); type: functional;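 note: potency of inhibitors blocking the TRPC4 calcium response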
T3 sequence (Q9QUQ5 whole entry): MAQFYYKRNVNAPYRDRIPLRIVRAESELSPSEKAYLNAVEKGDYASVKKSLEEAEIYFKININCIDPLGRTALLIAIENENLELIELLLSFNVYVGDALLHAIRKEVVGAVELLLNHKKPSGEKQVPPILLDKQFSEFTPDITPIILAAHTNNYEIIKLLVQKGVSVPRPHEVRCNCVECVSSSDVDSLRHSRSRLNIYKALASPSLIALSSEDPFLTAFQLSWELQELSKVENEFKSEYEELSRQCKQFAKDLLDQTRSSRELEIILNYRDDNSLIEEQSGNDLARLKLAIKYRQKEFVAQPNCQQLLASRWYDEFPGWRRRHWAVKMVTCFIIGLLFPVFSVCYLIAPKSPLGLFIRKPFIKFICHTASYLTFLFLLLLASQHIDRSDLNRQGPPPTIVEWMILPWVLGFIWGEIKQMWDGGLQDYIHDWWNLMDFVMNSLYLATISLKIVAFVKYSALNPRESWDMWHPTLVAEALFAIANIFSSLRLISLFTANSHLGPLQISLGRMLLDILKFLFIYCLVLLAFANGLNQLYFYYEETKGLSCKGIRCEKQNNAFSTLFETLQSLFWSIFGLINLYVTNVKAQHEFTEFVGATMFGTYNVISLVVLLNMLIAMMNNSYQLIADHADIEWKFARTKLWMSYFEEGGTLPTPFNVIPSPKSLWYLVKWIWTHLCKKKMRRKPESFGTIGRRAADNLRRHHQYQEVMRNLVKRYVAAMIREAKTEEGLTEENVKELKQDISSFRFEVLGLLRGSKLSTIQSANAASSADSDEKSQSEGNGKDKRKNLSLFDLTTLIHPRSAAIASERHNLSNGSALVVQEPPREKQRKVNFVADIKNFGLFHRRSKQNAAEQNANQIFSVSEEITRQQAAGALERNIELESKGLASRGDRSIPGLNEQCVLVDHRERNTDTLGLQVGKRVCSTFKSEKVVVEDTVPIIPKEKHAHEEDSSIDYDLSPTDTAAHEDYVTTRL

[14] = biological target: T4, Corticotropin-releasing factor receptor 2/Corticotropin-releasing factor-binding protein (Homo sapiens, UniProt P24387+Q13324); assay: Dose Response confirmation of uHTS hits for small molecule antagonists of the CRF-binding protein and CRF-R2 receptor complex.; type: functional; conditions: read-out: IC50_Mean
T4 sequence (Q13324 whole entry): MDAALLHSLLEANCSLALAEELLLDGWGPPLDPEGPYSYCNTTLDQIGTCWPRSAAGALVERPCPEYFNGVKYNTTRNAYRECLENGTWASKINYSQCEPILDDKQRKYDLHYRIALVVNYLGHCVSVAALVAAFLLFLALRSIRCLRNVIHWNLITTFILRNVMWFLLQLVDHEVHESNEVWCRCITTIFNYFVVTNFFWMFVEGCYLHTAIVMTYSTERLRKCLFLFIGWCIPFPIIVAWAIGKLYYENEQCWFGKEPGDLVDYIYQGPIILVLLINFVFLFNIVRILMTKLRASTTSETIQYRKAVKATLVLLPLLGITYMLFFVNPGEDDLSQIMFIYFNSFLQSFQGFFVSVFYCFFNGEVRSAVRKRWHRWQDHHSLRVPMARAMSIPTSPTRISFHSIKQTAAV
T4 sequence (P24387 whole entry): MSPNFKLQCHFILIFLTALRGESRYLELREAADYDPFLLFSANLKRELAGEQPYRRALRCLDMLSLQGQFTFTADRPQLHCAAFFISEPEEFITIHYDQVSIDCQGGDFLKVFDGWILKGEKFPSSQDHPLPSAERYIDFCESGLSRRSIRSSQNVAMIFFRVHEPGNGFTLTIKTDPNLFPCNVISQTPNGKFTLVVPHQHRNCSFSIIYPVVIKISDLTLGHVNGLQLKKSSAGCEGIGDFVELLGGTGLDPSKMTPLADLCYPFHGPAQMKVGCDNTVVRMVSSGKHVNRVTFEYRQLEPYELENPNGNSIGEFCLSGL

[15] = biological target: T4, Corticotropin-releasing factor receptor 2/Corticotropin-releasing factor-binding protein; assay: activators of CRF receptor 2 with binding protein – uHTS hits, confirmation (AID 602473); type: functional; conditions: read-out: EC50_Mean
[16] = HEp-2 cell cytotoxicity, dose response, cytotoxicity control for RSV inhibitor project, HTS (AID 2410); type: functional; conditions: human respiratory syncytial virus
[17] = biological target: Eukaryotic translation initiation factor 4E (Mus musculus, UniProt P63073); assay: eIF4E–eIF4G protein interaction inhibitors, dose response, biochemical, TR-FRET (AID 855); type: functional;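 note: potency for disrupting eIF4E binding to eIF4GI seen as loss of FRET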
[18] = biological target: Induced myeloid leukemia cell differentiation protein Mcl-1 (Homo sapiens, UniProt Q07820); type: functional
Coagulation factor XII = biological target: T5, Coagulation factor XII (Homo sapiens, UniProt P00748); type: functional;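 note: activated factor XIIa alpha cleaving a fluorogenic AMC peptide substrate; inhibitor potency from loss of enzyme activity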
T5 sequence (P00748 whole entry): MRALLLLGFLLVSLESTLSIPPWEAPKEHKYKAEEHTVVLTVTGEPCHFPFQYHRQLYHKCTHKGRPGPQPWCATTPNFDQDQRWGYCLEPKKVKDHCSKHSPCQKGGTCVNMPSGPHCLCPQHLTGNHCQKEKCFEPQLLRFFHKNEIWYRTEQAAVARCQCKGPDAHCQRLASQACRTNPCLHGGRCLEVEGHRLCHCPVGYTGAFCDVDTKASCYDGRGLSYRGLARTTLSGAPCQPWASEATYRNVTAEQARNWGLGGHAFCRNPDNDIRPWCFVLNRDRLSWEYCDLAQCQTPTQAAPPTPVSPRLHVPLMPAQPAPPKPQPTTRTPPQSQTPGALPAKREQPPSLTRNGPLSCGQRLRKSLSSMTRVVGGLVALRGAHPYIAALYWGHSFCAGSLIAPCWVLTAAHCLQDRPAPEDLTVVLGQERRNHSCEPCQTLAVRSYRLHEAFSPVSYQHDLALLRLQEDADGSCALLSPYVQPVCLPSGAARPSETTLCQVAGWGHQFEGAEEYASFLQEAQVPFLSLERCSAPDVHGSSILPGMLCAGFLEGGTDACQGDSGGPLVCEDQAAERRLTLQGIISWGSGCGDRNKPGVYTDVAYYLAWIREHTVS

[19] = P. falciparum 3D7-ScDHODH growth inhibitors, dose response, SYBR Green, dry powder samples (AID 1159570); type: functional, cell-based;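 note: parasite growth measured after 72 hours of compound exposure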
[20] = P. falciparum Dd2 growth inhibitors, dose response, SYBR Green, cherry-picked samples (AID 1159567); type: functional, cell-based
[21] = P. falciparum Dd2 growth inhibitors, dose response, SYBR Green, dry powder samples (AID 1159566); type: functional, cell-based;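 note: potency for growth inhibition with lower SYBR green DNA signal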
[22] = P. falciparum ATP4 D1247Y mutant growth inhibitors, dose response, NITD609-resistant line, SYBR Green, dry powder (AID 1159571); type: functional, cell-based;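 note: parasites synchronized at ring stage by sorbitol before testing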

Sequence of DNA dC->dU-editing enzyme APOBEC-3A (P31941 whole entry): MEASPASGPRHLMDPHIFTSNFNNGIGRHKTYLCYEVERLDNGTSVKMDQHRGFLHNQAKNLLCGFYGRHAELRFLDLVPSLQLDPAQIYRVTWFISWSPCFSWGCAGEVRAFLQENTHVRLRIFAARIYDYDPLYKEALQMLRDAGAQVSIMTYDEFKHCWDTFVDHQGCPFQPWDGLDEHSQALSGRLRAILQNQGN
Sequence of DNA dC->dU-editing enzyme APOBEC-3G (Q9HC16 whole entry): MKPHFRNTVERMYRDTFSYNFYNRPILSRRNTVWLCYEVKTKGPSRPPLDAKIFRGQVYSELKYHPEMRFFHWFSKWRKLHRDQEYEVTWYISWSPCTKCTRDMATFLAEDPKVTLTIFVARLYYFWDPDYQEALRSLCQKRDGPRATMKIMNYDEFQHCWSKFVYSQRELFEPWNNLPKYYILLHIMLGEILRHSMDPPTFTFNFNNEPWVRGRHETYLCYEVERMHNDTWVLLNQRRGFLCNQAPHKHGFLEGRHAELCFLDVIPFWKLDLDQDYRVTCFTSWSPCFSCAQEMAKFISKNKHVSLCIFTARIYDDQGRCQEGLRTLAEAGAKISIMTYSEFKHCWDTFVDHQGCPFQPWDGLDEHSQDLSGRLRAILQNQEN
T1 sequence (P08659 whole entry): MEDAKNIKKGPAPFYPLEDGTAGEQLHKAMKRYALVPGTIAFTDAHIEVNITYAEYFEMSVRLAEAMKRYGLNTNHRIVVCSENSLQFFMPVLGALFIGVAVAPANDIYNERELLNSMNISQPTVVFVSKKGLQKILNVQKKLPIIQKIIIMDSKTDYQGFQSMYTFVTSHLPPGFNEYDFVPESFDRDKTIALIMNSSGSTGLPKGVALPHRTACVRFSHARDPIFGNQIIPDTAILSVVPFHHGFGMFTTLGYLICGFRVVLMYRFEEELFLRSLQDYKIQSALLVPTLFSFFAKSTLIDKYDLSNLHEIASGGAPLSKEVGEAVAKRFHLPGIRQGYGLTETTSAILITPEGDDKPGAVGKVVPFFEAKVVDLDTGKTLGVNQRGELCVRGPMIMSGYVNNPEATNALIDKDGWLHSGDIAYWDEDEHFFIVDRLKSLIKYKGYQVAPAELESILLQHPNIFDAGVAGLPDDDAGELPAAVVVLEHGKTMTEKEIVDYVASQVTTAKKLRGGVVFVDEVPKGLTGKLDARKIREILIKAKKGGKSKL
Sequence of Eukaryotic translation initiation factor 4E (P63073 whole entry): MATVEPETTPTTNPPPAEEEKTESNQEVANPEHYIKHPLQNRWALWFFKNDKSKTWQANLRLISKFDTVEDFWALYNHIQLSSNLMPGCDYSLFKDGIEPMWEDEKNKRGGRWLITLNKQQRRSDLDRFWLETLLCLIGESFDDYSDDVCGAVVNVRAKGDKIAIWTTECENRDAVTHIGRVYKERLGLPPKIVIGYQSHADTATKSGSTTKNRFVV
Sequence of Glucose-6-phosphate 1-dehydrogenase (P11413 whole entry): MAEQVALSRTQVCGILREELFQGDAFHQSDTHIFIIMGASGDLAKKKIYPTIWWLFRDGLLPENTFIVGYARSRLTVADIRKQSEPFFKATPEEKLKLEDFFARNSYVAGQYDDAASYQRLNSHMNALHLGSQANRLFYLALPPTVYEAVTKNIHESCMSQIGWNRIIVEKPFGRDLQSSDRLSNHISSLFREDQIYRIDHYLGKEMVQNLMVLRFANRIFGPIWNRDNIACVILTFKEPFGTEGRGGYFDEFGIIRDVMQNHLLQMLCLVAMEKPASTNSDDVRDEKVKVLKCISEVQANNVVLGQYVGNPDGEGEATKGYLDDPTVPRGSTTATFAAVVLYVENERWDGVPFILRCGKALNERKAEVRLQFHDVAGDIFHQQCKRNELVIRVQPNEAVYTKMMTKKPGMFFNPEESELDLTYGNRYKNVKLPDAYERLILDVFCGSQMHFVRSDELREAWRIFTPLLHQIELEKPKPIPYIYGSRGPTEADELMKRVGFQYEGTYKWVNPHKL
Sequence of Glyceraldehyde-3-phosphate dehydrogenase (P04406 whole entry): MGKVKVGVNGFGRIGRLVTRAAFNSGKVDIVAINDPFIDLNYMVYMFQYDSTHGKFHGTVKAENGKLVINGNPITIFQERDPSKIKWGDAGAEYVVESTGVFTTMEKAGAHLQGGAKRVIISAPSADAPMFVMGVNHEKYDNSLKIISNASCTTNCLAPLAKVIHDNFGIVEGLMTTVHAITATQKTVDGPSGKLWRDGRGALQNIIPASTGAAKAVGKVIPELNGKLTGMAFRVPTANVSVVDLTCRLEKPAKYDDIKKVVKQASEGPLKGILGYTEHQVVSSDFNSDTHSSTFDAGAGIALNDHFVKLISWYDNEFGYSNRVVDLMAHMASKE
Sequence of Induced myeloid leukemia cell differentiation protein Mcl-1 (Q07820 whole entry): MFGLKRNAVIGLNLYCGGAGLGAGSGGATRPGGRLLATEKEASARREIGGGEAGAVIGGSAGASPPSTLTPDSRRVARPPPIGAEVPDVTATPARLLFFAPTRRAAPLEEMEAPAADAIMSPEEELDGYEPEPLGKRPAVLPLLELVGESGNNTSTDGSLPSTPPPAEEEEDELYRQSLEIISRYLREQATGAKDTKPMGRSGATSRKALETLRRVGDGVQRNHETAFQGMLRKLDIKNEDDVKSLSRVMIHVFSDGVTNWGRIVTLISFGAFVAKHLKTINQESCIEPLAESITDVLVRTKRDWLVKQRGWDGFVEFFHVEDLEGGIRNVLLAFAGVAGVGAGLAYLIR

Cc1ccoc1C(=O)Nc1ccc(CC(=O)O)cc1
EC50 [1]: 1.12 µM (active)
IC50 [2]: > 100 µM (not active)
EC50 (HT-1080): > 50 µM (not active)
IC50 [3]: > 80 µM (inactive)

COCCn1c(-c2ccc(Cl)cc2Cl)nc2c(c(=O)c3ccccc3n2C)c1=O
IC50 (cells): > 50 µM (active)

CC1(C)Cc2ccccc2-c2n[nH]c(=S)n21
EC50 [4]: > 195 µM (not active)
IC50 [5]: > 100 µM (inactive)
IC50 [6]: 4.33 µM (active)

COc1ccc(OC)c(-c2cc(C(=O)Nc3c(C)nn(Cc4ccc(Cl)cc4)c3C)no2)c1
EC50 [7]: 13.6 µM (active)
EC50 [8]: 19.5 µM (active)
EC50 [9]: 13.9 µM (active)
AC50 [10]: > 70 µM (inactive)

Cc1[nH]c(=S)c(C#N)c(C)c1CCC#N
EC50 [11]: > 112 µM (not active)
IC50 [5]: > 100 µM (inactive)
IC50 [12]: > 80 µM (inactive)
IC50 [6]: 9.7 µM (active)

Cc1nn(-c2cccc(Cl)c2)c2nc(C(F)(F)F)[nH]c(=O)c12
EC50 [13]: 3.35 µM (active)
IC50 [14]: 2.6 µM (active)
EC50 [15]: > 53 µM (inactive)

O=C(Nc1cccc(S(=O)(=O)Nc2ccccc2F)c1)c1ccc2ccccc2n1
IC50 [5]: > 100 µM (inactive)
IC50 [6]: 15.6 µM (active)

CCOC(=O)C1(Cc2cccc(OC)c2)CCN(Cc2cccn2-c2nccs2)CC1
CC50 [16]: > 50 µM (active)
IC50 (cells): 10.2 µM (active)

CCNC(=O)C1=C(O)c2sccc2N(C)S1(=O)=O
IC50 [17]: 50 µM (inactive)

Fc1cccc(-c2n[nH]c(=S)n2-c2ccccc2)c1
IC50 [5]: > 100 µM (inactive)
IC50 [6]: 4.26 µM (active)

Cc1cc(C)nc(NC(=N)Nc2ccc(CC(=O)OC(C)C)cc2)n1
AC50 [10]: 22.1 µM (active)

CC(C)C(=O)Nc1ccc(-c2nc3cccnc3o2)cc1
EC50 [1]: < 0.2 µM (active)
EC50 (HT-1080): > 50 µM (not active)

O=C1NC(c2ccc3c(c2)OCO3)Oc2ccccc21 (stereo not drawn)
IC50 [17]: > 64 µM (inactive)

Cc1ccccc1CC1(CO)CCCN(Cc2c(C)nn(C)c2Cl)C1 (stereo not drawn)
CC50 [16]: 49.4 µM (active)
IC50 (cells): 7.18 µM (active)

O=C(N/N=C/c1ccc(O)cc1)c1cccc(N/N=C/c2ccc(O)cc2)c1
IC50 [18]: 6.06 µM (active)

C/C(=N\NC(=O)c1cccc(N/N=C(\C)c2ccccc2)c1)c1ccccc1
IC50 (Coagulation factor XII): > 50 µM (inactive)

C[C@@H]1CN([C@@H](C)CO)C(=O)c2cccc(NC(=O)c3ccc(-c4nccs4)cc3)c2O[C@H]1CN(C)Cc1ccc(Cl)c(Cl)c1
AC50 [19]: 1.25 µM (active)
AC50 [20]: 1.7 µM (active)
AC50 [21]: 0.922 µM (active)
AC50 [22]: 0.692 µM (active)
